This note sets out measurements from patent US12390437B2, “Itaconic acid derivatives and uses thereof intreating an inflammatory disease or a disease associated with an undesirable immune response” (Sitryx Therapeutics Limited, priority 2019, dated 2025).

Data set [1] is described as follows: Mouse pharmacokinetic study, intravenous dosing. The format is in vivo. The following applies: male, C57BL/6, mouse, iv, plasma, 10 mg/kg i.v., read-out: Parent compound concentration following intravenous administration. In outline:
(§1)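 Plasma drug levels were quantified by LC-MS/MS from K2EDTA facial-vein semi-serial bleeds (N=3 per time point) in male C57BL/6 mice aged 6-8 weeks. Gavage dosing used 100 mg/kg (5% DMSO/HPMC-Tween vehicle, 5 min–24 h); tail-vein dosing used 10 mg/kg (10% DMSO/HP-β-CD vehicle, 3 min–8 h).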

Data set [2] in a line: Mouse pharmacokinetic study, oral administration. The format is in vivo. The settings on record: for concentration at 0.083 h / concentration at 0.25 h / concentration at 0.5 h / concentration at 1 h / concentration at 2 h / concentration at 4 h / concentration at 6 h / concentration at 8 h / concentration at 24 h: male. In outline: as §1
Data set [3] in a line: Hepatocyte stability assay (mouse). It counts as in vitro ADME. The settings on record: cryopreserved hepatocytes, 10 μM compound, 0.5×10^6 cells/mL, 60 minutes, read-out: T½. From the text: (§2) Defrosted cryo-preserved hepatocytes (viability >70%) are used to determine the metabolic stability of a compound via calculation of intrinsic clearance (Clint; a measure of the removal of a compound from the liver in the absence of blood flow and cell binding). Clearance data are particularly important for in vitro work as they can be used in combination with in vivo data to predict the half-life and oral bioavailability of a drug.
(§3) The metabolic stability in hepatocytes assay involves a time-dependent reaction using both positive and negative controls. The cells must be pre-incubated at 37° C. then spiked with test compound (and positive control); samples taken at pre-determined time intervals are analysed to monitor the change in concentration of the initial drug compound over 60 minutes. A buffer incubation reaction (with no hepatocytes present) acts as a negative control and two cocktail solutions, containing compounds with known high and low clearance values (verapamil/7-hydroxycoumarin and propranolol/diltiazem), act as positive controls. • 1. The assay is run with a cell concentration of 0.5×10^6 cells/mL in Leibovitz buffer. • 2. All compounds and controls are run in duplicate. • 3. Compound concentration is 10 μM. • 4. All compounds and controls are incubated with both cells and buffer to show turnover is due to hepatic metabolism. • 5. All wells on the incubation plate will have 326.7 μL of either cells or buffer added. • 6. Prior to assay, cell and buffer-only incubation plates are preincubated for 10 mins at 37° C. • 7. The assay is initiated by adding compounds, 3.3 μL of 1 mM in 10% DMSO-90% Buffer; final DMSO concentration is 0.1%. • 8. Samples are taken at regular timepoints (0, 5, 10, 20, 40, 60 min) until 60 mins. • 9. Sample volume is 40 μL and it is added to 160 μL of crash solvent (acetonitrile with internal standard) and stored on ice. • 10. At the end of the assay, the crash plates are centrifuged at 3500 rpm for 20 mins at 4° C. • 11. 80 μL of clear supernatant is removed and mixed with 80 μL of deionised water before being analysed by LC-MS/MS.
(§4) Raw LC-MS/MS data are exported to, and analysed in, Microsoft Excel for determination of intrinsic clearance. The percentage remaining of a compound is monitored using the peak area of the initial concentration as 100%. Intrinsic clearance and half-life values are calculated using a graph of the natural log of percentage remaining versus the time of reaction in minutes. Half-life (min) and intrinsic clearance (Clint in μL min^−1 10^−6 cells) values are calculated using the gradient of the graph (the elimination rate constant, k) and Equations 1 and 2.

The subject of a further data set is hepatocytes. Put plainly: Hepatocyte stability assay (mouse). The settings on record: 10 μM compound, 0.5×10^6 cells/mL, 60 minutes. It counts as in vitro ADME.
Description: as §2, §3, §4

Setting [4] is: C57BL/6, mouse, plasma, po, 100 mg/kg, plasma, male C57BL/6 mice, oral gavage 100 mg/kg, 0.083 h, read-out: Parent compound concentrations following oral administration, Time 0.083 h.
Setting [5] is: C57BL/6, mouse, plasma, po, 100 mg/kg, plasma, male C57BL/6 mice, oral gavage 100 mg/kg, 0.25 h, read-out: Parent compound concentrations following oral administration, Time 0.25 h.
Setting [6] is: C57BL/6, mouse, plasma, po, 100 mg/kg, plasma, male C57BL/6 mice, oral gavage 100 mg/kg, 0.5 h, read-out: Parent compound concentrations following oral administration, Time 0.5 h.
Where [7] appears, read: C57BL/6, mouse, plasma, po, 100 mg/kg, plasma, male C57BL/6 mice, oral gavage 100 mg/kg, 1 h, read-out: Parent compound concentrations following oral administration, Time 1 h.
The mark [8] stands for this setting: C57BL/6, mouse, plasma, po, 100 mg/kg, plasma, male C57BL/6 mice, oral gavage 100 mg/kg, 2 h, read-out: Parent compound concentrations following oral administration, Time 2 h.
[9] abbreviates: C57BL/6, mouse, plasma, po, 100 mg/kg, plasma, male C57BL/6 mice, oral gavage 100 mg/kg, 4 h, read-out: Parent compound concentrations following oral administration, Time 4 h.
The mark [10] stands for this setting: C57BL/6, mouse, plasma, po, 100 mg/kg, plasma, male C57BL/6 mice, oral gavage 100 mg/kg, 6 h, read-out: Parent compound concentrations following oral administration, Time 6 h.
[11] abbreviates: C57BL/6, mouse, plasma, po, 100 mg/kg, plasma, male C57BL/6 mice, oral gavage 100 mg/kg, 8 h, read-out: Parent compound concentrations following oral administration, Time 8 h.
Where [12] appears, read: C57BL/6, mouse, plasma, po, 100 mg/kg, plasma, male C57BL/6 mice, oral gavage 100 mg/kg, 24 h, read-out: Parent compound concentrations following oral administration, Time 24 h.

Like-named read-outs stand apart in the source and are kept apart here.

As to `C=C(CC(=O)OCCCCCC)C(=O)OCC(=O)O` [Example 94, 2-((4-(hexyloxy)-2-methylene-4-oxobutanoyl)oxy)acetic acid], in data set [1], the concentration at 0.05 h came out at 18000 ng/mL, the concentration at 0.133 h was 6070 ng/mL, the concentration at 0.25 h came to 2440 ng/mL and the concentration at 0.5 h was found to be 550 ng/mL. Further, in data set [1], the concentration at 1 h was determined as 42 ng/mL, the concentration at 2 h is 1.9 ng/mL, the concentration at 4 h came out at 1.4 ng/mL and the concentration at 6 h is < 0.8 ng/mL. In addition, in data set [1], the concentration at 8 h is < 0.8 ng/mL. Further, the concentration at 0.083 h in data set [2] (setting [4]) worked out at 27800 ng/mL. The concentration at 0.25 h in data set [2] (setting [5]) worked out at 12600 ng/mL. For the same molecule, the concentration at 0.5 h in data set [2] (setting [6]) turned out to be 8220 ng/mL. Moreover, the concentration at 1 h in data set [2] (setting [7]) is 3110 ng/mL. Moreover, the concentration at 2 h in data set [2] (setting [8]) was found to be 2140 ng/mL. The concentration at 4 h in data set [2] (setting [9]) was determined as 392 ng/mL. Further, in data set [2] (setting [10]), the concentration at 6 h worked out at 196 ng/mL. Besides, the concentration at 8 h in data set [2] (setting [11]) is 90 ng/mL. For the same molecule, the concentration at 24 h in data set [2] (setting [12]) was < 0.8 ng/mL. Besides, the half-life at 10 μM in data set [3] was 23 min. For the same molecule, in the data set on hepatocytes, the “CIint (μL min^−1 10^−6 cells)” value was found to be 60 μL min^−1 10^−6 cells.

For `C=C(CC(=O)O[C@H](C)CCCCCC)C(=O)OCC(=O)O` [Example 112, (R)-2-((2-methylene-4-(octan-2-yloxy)-4-oxobutanoyl)oxy)acetic acid], in data set [1], the concentration at 0.05 h was determined as 63500 ng/mL. Also, the concentration at 0.133 h in data set [1] is 40100 ng/mL. Also, the concentration at 0.25 h in data set [1] was 36200 ng/mL; in data set [2] (setting [5]), 64600 ng/mL; in data set [2] (C57BL/6, po, mouse plasma, Example 112 dosed orally at 100 mg/kg (Intermediate 8 = metabolite), time 0.25 h, read-out: Example 112 and Intermediate 8 concentrations following oral administration), 116000 ng/mL. For the same molecule, the concentration at 0.5 h was determined as 23500 ng/mL in data set [1]; 72300 ng/mL in data set [2] (setting [6]); 74200 ng/mL in data set [2] (C57BL/6, po, mouse plasma, Example 112 dosed orally at 100 mg/kg (Intermediate 8 = metabolite), time 0.5 h, read-out: Example 112 and Intermediate 8 concentrations following oral administration). In addition, the concentration at 1 h in data set [1] was 13000 ng/mL; in data set [2] (setting [7]), 49500 ng/mL; in data set [2] (C57BL/6, po, mouse plasma, Example 112 dosed orally at 100 mg/kg (Intermediate 8 = metabolite), time 1 h, read-out: Example 112 and Intermediate 8 concentrations following oral administration), 27900 ng/mL. Further, the concentration at 2 h in data set [1] came to 3540 ng/mL; in data set [2] (setting [8]) it was 31400 ng/mL; in data set [2] (C57BL/6, po, mouse plasma, Example 112 dosed orally at 100 mg/kg (Intermediate 8 = metabolite), time 2 h, read-out: Example 112 and Intermediate 8 concentrations following oral administration), 14000 ng/mL. In addition, the concentration at 4 h is 1510 ng/mL in data set [1]; 21300 ng/mL in data set [2] (setting [9]); 4880 ng/mL in data set [2] (C57BL/6, po, mouse plasma, Example 112 dosed orally at 100 mg/kg (Intermediate 8 = metabolite), time 4 h, read-out: Example 112 and Intermediate 8 concentrations following oral administration). Further, the concentration at 6 h in data set [1] is 424 ng/mL; in data set [2] (setting [10]), 6780 ng/mL; in data set [2] (C57BL/6, po, mouse plasma, Example 112 dosed orally at 100 mg/kg (Intermediate 8 = metabolite), time 6 h, read-out: Example 112 and Intermediate 8 concentrations following oral administration) it was 4020 ng/mL. In addition, the concentration at 8 h amounted to 154 ng/mL in data set [1]; 12200 ng/mL in data set [2] (setting [11]); 867 ng/mL in data set [2] (C57BL/6, po, mouse plasma, Example 112 dosed orally at 100 mg/kg (Intermediate 8 = metabolite), time 8 h, read-out: Example 112 and Intermediate 8 concentrations following oral administration). Moreover, the concentration at 0.083 h in data set [2] (setting [4]) is 79800 ng/mL; in data set [2] (C57BL/6, po, mouse plasma, Example 112 dosed orally at 100 mg/kg (Intermediate 8 = metabolite), time 0.083 h, read-out: Example 112 and Intermediate 8 concentrations following oral administration), 109000 ng/mL. The concentration at 24 h is 25 ng/mL in data set [2] (setting [12]); < 8 ng/mL in data set [2] (C57BL/6, po, mouse plasma, Example 112 dosed orally at 100 mg/kg (Intermediate 8 = metabolite), time 24 h, read-out: Example 112 and Intermediate 8 concentrations following oral administration). In addition, the Metabolism in vivo entry in data set [2] (mouse pharmacokinetic study, oral) is “undergoes hydrolysis in vivo to form Intermediate 8”. Also, the half-life at 10 μM in data set [3] is 13 min. For the same molecule, the “CIint (μL min^−1 10^−6 cells)” value with hepatocytes amounted to 255 μL min^−1 10^−6 cells.

As to `C=C(CC(=O)OC1CCCCC1)C(=O)OCc1nnn[nH]1` [Example 125, 1-((2H-tetrazol-5-yl)methyl) 4-cyclohexyl 2-methylenesuccinate], in data set [1], the concentration at 0.05 h amounted to 11900 ng/mL, the concentration at 0.133 h was 3870 ng/mL, the concentration at 0.25 h stood at 1070 ng/mL and the concentration at 0.5 h is 346 ng/mL. Moreover, in data set [1], the concentration at 1 h amounted to 38 ng/mL, the concentration at 2 h worked out at 3 ng/mL, the concentration at 4 h is < 0.8 ng/mL and the concentration at 6 h is < 0.8 ng/mL. Further, the concentration at 8 h in data set [1] was < 0.8 ng/mL. In addition, the concentration at 0.083 h in data set [2] (setting [4]) was 9360 ng/mL. For the same molecule, the concentration at 0.25 h in data set [2] (setting [5]) turned out to be 4360 ng/mL. For the same molecule, in data set [2] (setting [6]), the concentration at 0.5 h came to 2650 ng/mL. Further, the concentration at 1 h in data set [2] (setting [7]) was 1430 ng/mL. Also, the concentration at 2 h in data set [2] (setting [8]) was 785 ng/mL. Further, the concentration at 4 h in data set [2] (setting [9]) came to 427 ng/mL. In data set [2] (setting [10]), the concentration at 6 h is 163 ng/mL. The concentration at 8 h in data set [2] (setting [11]) worked out at 15 ng/mL. Besides, the concentration at 24 h in data set [2] (setting [12]) is < 0.8 ng/mL. Also, the half-life at 10 μM in data set [3] is 16 min. In addition, the “CIint (μL min^−1 10^−6 cells)” value with hepatocytes is 101 μL min^−1 10^−6 cells.
